Source: US11071300B2, “Pesticidally active pyrazole derivatives” (SYNGENTA PARTICIPATIONS AG, priority 2017, dated 2021)
Read-outs that look alike come from different tables or passages of the source.

Experiments:
Format in all cases: in vivo
Spodoptera littoralis = Spodoptera littoralis (Egyptian cotton leaf worm) leaf disc test; conditions: foliar, 72 h, application rate 200 ppm, cotton leaf discs sprayed, L1 larvae, 3 days after infestation, read-out: control (at least one of mortality, anti-feedant effect, growth inhibition)
In short: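 Cotton leaf discs on agar were sprayed with aqueous dilutions of 10′000 ppm DMSO stocks, dried and infested with five L1 larvae. Mortality, anti-feedant effect and growth inhibition were scored against untreated samples 3 days after infestation. Control = any of these higher than untreated.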

Tetranychus urticae = Tetranychus urticae (two-spotted spider mite) leaf disc test; conditions: foliar, 192 h, read-out: control (mortality on mixed population, mobile stages)
Method: Tetranychus urticae (Two-Spotted Spider Mite):
Bean leaf discs on agar in 24-well microtiter plates were sprayed with aqueous test solutions prepared from 10′000 ppm DMSO stock solutions. After drying the leaf discs were infested with a mite population of mixed ages. The samples were assessed for mortality on mixed population (mobile stages) 8 days after infestation.

Thrips tabaci = Thrips tabaci (onion thrips) leaf disc test; conditions: foliar, 144 h, read-out: control (mortality)
Method: Thrips tabaci (Onion Thrips):
Sunflower leaf discs were placed on agar in 24-well microtiter plates and sprayed with aqueous test solutions prepared from 10′000 ppm DMSO stock solutions. After drying the leaf discs were infested with a thrips population of mixed ages. The samples were assessed for mortality 6 days after infestation.

Plutella xylostella = Plutella xylostella (diamond back moth) artificial diet test; conditions: 120 h, read-out: control (mortality and growth inhibition)
Method: Plutella xylostella (Diamond Back Moth):
(§1) 24-well microtiter plates with artificial diet were treated with aqueous test solutions prepared from 10′000 ppm DMSO stock solutions by pipetting. After drying, the plates were infested with L2 larvae (10 to 15 per well). The samples were assessed for mortality and growth inhibition in comparison to untreated samples 5 days after infestation.

Diabrotica Balteata = experiment: Diabrotica balteata (corn root worm) maize sprout test; conditions: 96 h, read-out: control (mortality and growth inhibition)
Method: Diabrotica Balteata, (Corn Root Worm)
as §1, with “Maize sprouts, placed on an agar layer in 24-well” for “24-well”, “plates” for “plates with artificial diet”, “spraying.” for “pipetting.”, “(6” for “(10”, “10” for “15”, “4” for “5”

Myzus persicae = Myzus persicae (green peach aphid) leaf disc test; conditions: foliar, 144 h, read-out: control (mortality)
Method: Myzus persicae (Green Peach Aphid):
Sunflower leaf discs were placed on agar in a 24-well microtiter plate and sprayed with test solutions at an application rate of 200 ppm. After drying, the leaf discs were infested with an aphid population of mixed ages. After an incubation period of 6 DAT, samples were checked for mortality.

Euschistus heros = Euschistus heros (neotropical brown stink bug) soybean leaf test; conditions: 120 h, read-out: control (mortality and growth inhibition)
Method: Euschistus heros (Neotropical Brown Stink Bug):
Soybean leaves on agar in 24-well microtiter plates were sprayed with aqueous test solutions prepared from 10′000 ppm DMSO stock solutions. After drying the leaves were infested with N2 nymphs. The samples were assessed for mortality and growth inhibition in comparison to untreated samples 5 days after infestation.

[1] = application rate 200 ppm, bean leaf discs sprayed, 8 days after infestation
[2] = application rate 200 ppm, sunflower leaf discs sprayed, mixed ages, 6 days after infestation
[3] = application rate 200 ppm, artificial diet, L2 larvae, 5 days after infestation
[4] = application rate 200 ppm, maize sprouts sprayed, L2 larvae, 4 days after infestation
[5] = application rate 200 ppm, sunflower leaf discs sprayed, mixed ages, 6 DAT
[6] = application rate 200 ppm, soybean leaves sprayed, N2 nymphs, 5 days after infestation

Cn1nc(OS(=O)(=O)C(F)(C(F)(F)F)C(F)(F)F)c(C(F)(F)F)c1-n1cc(-c2cnc(Cl)c(C(=O)NC3CC3)c2)cn1 [Compound 21, [5-[4-[6-chloro-5-(cyclopropylcarbamoyl)-3-pyridyl]pyrazol-1-yl]-1-methyl-4-(trifluoromethyl)pyrazol-3-yl] 1,1,1,2,3,3,3-heptafluoropropane-2-sulfonate]
≥ 80%: percent control (mortality, anti-feedant effect or growth inhibition) at 200 ppm (Spodoptera littoralis) | mortality at 200 ppm (Tetranychus urticae; [1]) | mortality at 200 ppm (Thrips tabaci; [2]) | mortality at 200 ppm (Plutella xylostella; [3]) | mortality at 200 ppm (Diabrotica Balteata; [4]) | mortality at 200 ppm (Myzus persicae; [5]) | mortality at 200 ppm (Euschistus heros; [6])

COCC(=O)N(C(=O)c1cc(-c2cnn(-c3c(C(F)(F)F)c(OS(=O)(=O)C(F)(C(F)(F)F)C(F)(F)F)nn3C)c2)ccc1Cl)C1(C#N)CC1 [Compound 62, [5-[4-[4-chloro-3-[(1-cyanocyclopropyl)-(2-methoxyacetyl)carbamoyl]phenyl]pyrazol-1-yl]-1-methyl-4-(trifluoromethyl)pyrazol-3-yl] 1,1,1,2,3,3,3-heptafluoropropane-2-sulfonate]
≥ 80%: percent control (mortality, anti-feedant effect or growth inhibition) at 200 ppm (Spodoptera littoralis) | mortality at 200 ppm (Tetranychus urticae; [1]) | mortality at 200 ppm (Thrips tabaci; [2]) | mortality at 200 ppm (Plutella xylostella; [3]) | mortality at 200 ppm (Diabrotica Balteata; [4]) | mortality at 200 ppm (Myzus persicae; [5]) | mortality at 200 ppm (Euschistus heros; [6])

Cn1nc(OS(=O)(=O)C(F)(C(F)(F)F)C(F)(F)F)c(C(F)(F)F)c1-n1cc(-c2ccc(Cl)c(C(=O)NC3(C#N)CC3)c2)cn1 [Compound 2, [5-[4-[4-chloro-3-[(1-cyanocyclopropyl)carbamoyl]phenyl]pyrazol-1-yl]-1-methyl-4-(trifluoromethyl)pyrazol-3-yl] 1,1,1,2,3,3,3-heptafluoropropane-2-sulfonate]
≥ 80%: percent control (mortality, anti-feedant effect or growth inhibition) at 200 ppm (Spodoptera littoralis) | mortality at 200 ppm (Tetranychus urticae; [1]) | mortality at 200 ppm (Thrips tabaci; [2]) | mortality at 200 ppm (Plutella xylostella; [3]) | mortality at 200 ppm (Diabrotica Balteata; [4]) | mortality at 200 ppm (Myzus persicae; [5]) | mortality at 200 ppm (Euschistus heros; [6])

Cn1nc(OS(=O)(=O)C(F)(F)C(F)(F)Cl)c(C(F)(F)F)c1-n1cc(-c2ccc(Cl)c(C(=O)NC3CC3)c2)cn1 [Compound 9, [5-[4-[4-chloro-3-(cyclopropylcarbamoyl)phenyl]pyrazol-1-yl]-1-methyl-4-(trifluoromethyl)pyrazol-3-yl] 2-chloro-1,1,2,2-tetrafluoro-ethanesulfonate]
≥ 80%: percent control (mortality, anti-feedant effect or growth inhibition) at 200 ppm (Spodoptera littoralis) | mortality at 200 ppm (Tetranychus urticae; [1]) | mortality at 200 ppm (Thrips tabaci; [2]) | mortality at 200 ppm (Plutella xylostella; [3]) | mortality at 200 ppm (Diabrotica Balteata; [4]) | mortality at 200 ppm (Myzus persicae; [5]) | mortality at 200 ppm (Euschistus heros; [6])

CCOC(=O)N(C(=O)c1cc(-c2cnn(-c3c(C(F)(F)F)c(OS(=O)(=O)C(F)(C(F)(F)F)C(F)(F)F)nn3C)c2)ccc1Cl)C1(C#N)CC1 [Compound 51, [5-[4-[4-chloro-3-[(1-cyanocyclopropyl)-ethoxycarbonyl-carbamoyl]phenyl]pyrazol-1-yl]-1-methyl-4-(trifluoromethyl)pyrazol-3-yl] 1,1,1,2,3,3,3-heptafluoropropane-2-sulfonate]
≥ 80%: percent control (mortality, anti-feedant effect or growth inhibition) at 200 ppm (Spodoptera littoralis) | mortality at 200 ppm (Tetranychus urticae) | mortality at 200 ppm (Thrips tabaci) | mortality at 200 ppm (Plutella xylostella) | mortality at 200 ppm (Diabrotica Balteata) | mortality at 200 ppm (Myzus persicae) | mortality at 200 ppm (Euschistus heros)

CCN(C(=O)c1cc(-c2cc(-c3c(C(F)(F)F)c(OS(=O)(=O)C(F)(C(F)(F)F)C(F)(F)F)nn3C)no2)ccc1Cl)C1CC1 [Compound 35, [5-[5-[4-chloro-3-[cyclopropyl(ethyl)carbamoyl]phenyl]isoxazol-3-yl]-1-methyl-4-(trifluoromethyl)pyrazol-3-yl] 1,1,1,2,3,3,3-heptafluoropropane-2-sulfonate]
≥ 80%: percent control (mortality, anti-feedant effect or growth inhibition) at 200 ppm (Spodoptera littoralis) | mortality at 200 ppm (Tetranychus urticae; [1]) | mortality at 200 ppm (Thrips tabaci; [2]) | mortality at 200 ppm (Plutella xylostella; [3]) | mortality at 200 ppm (Diabrotica Balteata; [4]) | mortality at 200 ppm (Myzus persicae; [5]) | mortality at 200 ppm (Euschistus heros; [6])

CC(=O)N(C(=O)c1cc(-c2cnn(-c3c(C(F)(F)F)c(OS(=O)(=O)C(F)(C(F)(F)F)C(F)(F)F)nn3C)c2)ccc1Cl)C1(C#N)CC1 [Compound 46, [5-[4-[3-[acetyl-(1-cyanocyclopropyl)carbamoyl]-4-chloro-phenyl]pyrazol-1-yl]-1-methyl-4-(trifluoromethyl)pyrazol-3-yl] 1,1,1,2,3,3,3-heptafluoropropane-2-sulfonate]
≥ 80%: percent control (mortality, anti-feedant effect or growth inhibition) at 200 ppm (Spodoptera littoralis) | mortality at 200 ppm (Tetranychus urticae; [1]) | mortality at 200 ppm (Thrips tabaci; [2]) | mortality at 200 ppm (Plutella xylostella; [3]) | mortality at 200 ppm (Diabrotica Balteata; [4]) | mortality at 200 ppm (Myzus persicae; [5]) | mortality at 200 ppm (Euschistus heros; [6])

Cn1nc(OS(=O)(=O)C(F)(C(F)(F)F)C(F)(F)F)c(C(F)(F)F)c1-n1cc(-c2ccc(Cl)c(C(=O)NC3CC3)c2)cn1 [Compound 5, [5-[4-[4-chloro-3-(cyclopropylcarbamoyl)phenyl]pyrazol-1-yl]-1-methyl-4-(trifluoromethyl)pyrazol-3-yl] 1,1,1,2,3,3,3-heptafluoropropane-2-sulfonate]
≥ 80%: percent control (mortality, anti-feedant effect or growth inhibition) at 200 ppm (Spodoptera littoralis) | mortality at 200 ppm (Tetranychus urticae; [1]) | mortality at 200 ppm (Thrips tabaci; [2]) | mortality at 200 ppm (Plutella xylostella; [3]) | mortality at 200 ppm (Diabrotica Balteata; [4]) | mortality at 200 ppm (Myzus persicae; [5]) | mortality at 200 ppm (Euschistus heros; [6])

CCN(C(=O)c1cc(-c2cnn(-c3c(C(F)(F)F)c(OS(=O)(=O)C(F)(C(F)(F)F)C(F)(F)F)nn3C)c2)ccc1Cl)C1(C#N)CC1 [Compound 45, [5-[4-[4-chloro-3-[(1-cyanocyclopropyl)-ethyl-carbamoyl]phenyl]pyrazol-1-yl]-1-methyl-4-(trifluoromethyl)pyrazol-3-yl] 1,1,1,2,3,3,3-heptafluoropropane-2-sulfonate]
≥ 80%: percent control (mortality, anti-feedant effect or growth inhibition) at 200 ppm (Spodoptera littoralis) | mortality at 200 ppm (Tetranychus urticae; [1]) | mortality at 200 ppm (Thrips tabaci; [2]) | mortality at 200 ppm (Plutella xylostella; [3]) | mortality at 200 ppm (Diabrotica Balteata; [4]) | mortality at 200 ppm (Myzus persicae; [5]) | mortality at 200 ppm (Euschistus heros; [6])

CC(C)C(=O)N(C(=O)c1cc(-c2cnn(-c3c(C(F)(F)F)c(OS(=O)(=O)C(F)(C(F)(F)F)C(F)(F)F)nn3C)c2)ccc1Cl)C1(C#N)CC1 [Compound 60, [5-[4-[4-chloro-3-[(1-cyanocyclopropyl)-(2-methylpropanoyl)carbamoyl]phenyl]pyrazol-1-yl]-1-methyl-4-(trifluoromethyl)pyrazol-3-yl] 1,1,1,2,3,3,3-heptafluoropropane-2-sulfonate]
≥ 80%: percent control (mortality, anti-feedant effect or growth inhibition) at 200 ppm (Spodoptera littoralis) | mortality at 200 ppm (Tetranychus urticae; [1]) | mortality at 200 ppm (Thrips tabaci; [2]) | mortality at 200 ppm (Plutella xylostella; [3]) | mortality at 200 ppm (Diabrotica Balteata; [4]) | mortality at 200 ppm (Myzus persicae; [5]) | mortality at 200 ppm (Euschistus heros; [6])

C#CCN(C(=O)c1cc(-c2cnn(-c3c(C(F)(F)F)c(OS(=O)(=O)C(F)(C(F)(F)F)C(F)(F)F)nn3C)c2)ccc1Cl)C1(C#N)CC1 [Compound 50, [5-[4-[4-chloro-3-[(1-cyanocyclopropyl)-prop-2-ynyl-carbamoyl]phenyl]pyrazol-1-yl]-1-methyl-4-(trifluoromethyl)pyrazol-3-yl] 1,1,1,2,3,3,3-heptafluoropropane-2-sulfonate]
≥ 80%: percent control (mortality, anti-feedant effect or growth inhibition) at 200 ppm (Spodoptera littoralis) | mortality at 200 ppm (Tetranychus urticae; [1]) | mortality at 200 ppm (Thrips tabaci; [2]) | mortality at 200 ppm (Plutella xylostella; [3]) | mortality at 200 ppm (Diabrotica Balteata; [4]) | mortality at 200 ppm (Myzus persicae; [5]) | mortality at 200 ppm (Euschistus heros; [6])

CN(C(=O)c1cc(-c2cnn(-c3c(C(F)(F)F)c(OS(=O)(=O)C(F)(C(F)(F)F)C(F)(F)F)nn3C)c2)ccc1Cl)C1(C#N)CC1 [Compound 18, [5-[4-[4-chloro-3-[(1-cyanocyclopropyl)-methyl-carbamoyl]phenyl]pyrazol-1-yl]-1-methyl-4-(trifluoromethyl)pyrazol-3-yl] 1,1,1,2,3,3,3-heptafluoropropane-2-sulfonate]
≥ 80%: percent control (mortality, anti-feedant effect or growth inhibition) at 200 ppm (Spodoptera littoralis) | mortality at 200 ppm (Tetranychus urticae; [1]) | mortality at 200 ppm (Thrips tabaci; [2]) | mortality at 200 ppm (Plutella xylostella; [3]) | mortality at 200 ppm (Diabrotica Balteata; [4]) | mortality at 200 ppm (Myzus persicae; [5]) | mortality at 200 ppm (Euschistus heros; [6])
